In publication PMC5599305 (The pharmacogenomics journal, 2017):

Legend:
Assay type in all cases: cell-based
[1] = target: T1, human α4β2 nicotinic receptor, 3:2 (α4:β2) stoichiometry; (α4)3(β2)2 (Homo sapiens, UniProt P17787+P43681); assay: two-electrode voltage clamp, Xenopus oocytes, direct activation; details: 200 μM compound alone; weak agonism
[2] = target: human α4β2 nicotinic receptor, 2:3 stoichiometry; (α4)2(β2)3 (Homo sapiens, UniProt P17787+P43681); assay: as above; details: 200 μM compound alone; weak agonism
[3] = target: T1, human α4β2 nicotinic receptor, 3:2 (α4:β2) stoichiometry; (α4)3(β2)2; assay: two-electrode voltage clamp, Xenopus oocytes; details: agonist

T1 sequence (P43681 27-627): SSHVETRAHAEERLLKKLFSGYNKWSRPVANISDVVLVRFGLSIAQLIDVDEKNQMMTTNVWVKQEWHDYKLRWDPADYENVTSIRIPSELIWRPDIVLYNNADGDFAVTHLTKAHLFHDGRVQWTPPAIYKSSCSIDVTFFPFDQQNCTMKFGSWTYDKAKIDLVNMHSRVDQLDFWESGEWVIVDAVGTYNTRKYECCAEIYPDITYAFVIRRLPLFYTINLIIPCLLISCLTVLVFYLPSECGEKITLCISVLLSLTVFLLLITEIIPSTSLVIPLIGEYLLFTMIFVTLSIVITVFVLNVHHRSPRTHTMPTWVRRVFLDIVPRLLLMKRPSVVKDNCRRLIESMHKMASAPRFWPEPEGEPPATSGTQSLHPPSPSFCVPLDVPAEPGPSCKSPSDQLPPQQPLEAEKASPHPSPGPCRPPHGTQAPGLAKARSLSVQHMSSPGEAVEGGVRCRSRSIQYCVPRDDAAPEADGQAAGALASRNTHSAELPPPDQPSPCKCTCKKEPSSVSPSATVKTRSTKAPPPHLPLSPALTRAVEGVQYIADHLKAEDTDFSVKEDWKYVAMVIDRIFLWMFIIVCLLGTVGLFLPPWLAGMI
T1 sequence (P17787 26-502): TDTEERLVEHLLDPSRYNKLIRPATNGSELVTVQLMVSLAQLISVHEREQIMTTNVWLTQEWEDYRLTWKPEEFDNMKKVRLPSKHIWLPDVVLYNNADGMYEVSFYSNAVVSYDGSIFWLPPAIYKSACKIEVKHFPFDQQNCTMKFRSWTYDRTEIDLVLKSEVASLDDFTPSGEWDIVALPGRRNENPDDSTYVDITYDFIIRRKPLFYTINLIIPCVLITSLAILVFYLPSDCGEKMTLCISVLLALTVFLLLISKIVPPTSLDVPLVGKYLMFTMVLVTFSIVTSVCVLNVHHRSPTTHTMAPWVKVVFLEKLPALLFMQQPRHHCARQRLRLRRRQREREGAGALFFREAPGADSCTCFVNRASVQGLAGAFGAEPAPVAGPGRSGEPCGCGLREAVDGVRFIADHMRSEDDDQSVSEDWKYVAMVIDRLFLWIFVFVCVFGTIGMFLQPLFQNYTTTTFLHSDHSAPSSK
Chain of human α4β2 nicotinic receptor, 2:3 stoichiometry; (α4)2(β2)3 (P43681 27-627): as the sequence (P43681 27-627) above
Chain of human α4β2 nicotinic receptor, 2:3 stoichiometry; (α4)2(β2)3 (P17787 26-502): as the sequence (P17787 26-502) above

Row | SMILES | relative peak response, % of 1 mM ACh response, at 200 μM [1] | relative peak response, % of saturating ACh response, at 200 μM [2] | EC3 [3]
1 | C[N@@+]1([O-])CCC[C@H]1c1cccnc1 [trans-nicotine-N-oxide] | 1.7 ± 0.3% | 5.7 ± 1.1% | –
2 | CC(=O)OCC[N+](C)(C)C [acetylcholine] | – | – | ~ 1 μM
